Species on record: Rattus norvegicus
Experiment: Open TG-GATES - Regimen: Daily Repeat
Assay type: toxicity, organism-based, Sprague-Dawley
Design: regimen Daily Repeat, gender Male, age 6 weeks
Details: in vivo, po, route gavage; for gamma-GTP / ALP / AST / BUN / CRE / Ca / Cl / DBIL / GLC / IP / K / LDH / Na / PL / RALB / TBIL / TC / TG / TP: tissue Plasma; for APTT / Bas / Eos / Fbg / Hb / Ht / Lym / MCH / MCHC / MCV / Mono / Neu / PT / Plat / RBC / Ret / WBC: tissue Blood; for KIDNEY_L / KIDNEY_R / KIDNEY_TOTAL: tissue Kidney; for LIVER: tissue Liver
[1] = 300 mg/kg, 72 h, dose level Middle, time 3 day
[2] = 300 mg/kg, […], dose level Middle, time 7 day
[3] = 300 mg/kg, […], dose level Middle, time 14 day
[4] = 300 mg/kg, […], dose level Middle, time 28 day
[5] = 1000 mg/kg, 72 h, dose level High, time 3 day
[6] = 1000 mg/kg, […], dose level High, time 7 day
[7] = 1000 mg/kg, […], dose level High, time 14 day
[8] = 1000 mg/kg, […], dose level High, time 28 day

## COc1ccc2[nH]c([S+]([O-])Cc3ncc(C)c(OC)c3C)nc2c1 (stereo not drawn) [OMEPRAZOLE]
100 mg/kg, […], dose level Low, time 28 day
  gamma-GTP: 0.8 IU/L
[1]
  APTT: 19.8 s
  Bas: 0%
  Eos: 0.8%
  Fbg: 223 mg/dL
  Hb: 13 g/dL
  Ht: 37.9%
  Lym: 81%
  MCH: 20.9 pg
  MCHC: 34.3%
  MCV: 60.9 fL
  Mono: 3.6%
  Neu: 14%
  PT: 12.2 s
  Plat: 135 x10_4/uL
  RBC: 623 x10_4/ul
  Ret: 4.2%
  WBC: 94 x10_2/uL
  KIDNEY_L: 1 g
  KIDNEY_R: 1 g
  KIDNEY_TOTAL: 2.1 g
  LIVER: 12.8 g
  ALP: 925.8 IU/L
  AST: 61.4 IU/L
  BUN: 14.8 mg/dL
  CRE: 0.4 mg/dL
  Ca: 10.5 mg/dL
  Cl: 100.8 meq/L
  DBIL: 0.058 mg/dL
  GLC: 220.6 mg/dL
  IP: 8.9 mg/dL
  K: 3.9 meq/L
  LDH: 184.6 IU/L
  Na: 139.8 meq/L
  PL: 175.8 mg/dL
  RALB: 3.4 g/dL
  TBIL: 0.1 mg/dL
  TC: 101.2 mg/dL
  TG: 85 mg/dL
  TP: 5.6 g/dL
  gamma-GTP: 1 IU/L
[2]
  TERMINAL_BW: 269.3 g
  APTT: 21.7 s
  Bas: 0%
  Eos: 1%
  Fbg: 216.8 mg/dL
  Hb: 13.4 g/dL
  Ht: 39.5%
  Lym: 78.8%
  MCH: 20.6 pg
  MCHC: 33.9%
  MCV: 60.8 fL
  Mono: 3%
  Neu: 17.4%
  PT: 12 s
  Plat: 156.8 x10_4/uL
  RBC: 649.8 x10_4/ul
  Ret: 4.9%
  WBC: 98.4 x10_2/uL
  KIDNEY_L: 1.1 g
  KIDNEY_R: 1.1 g
  KIDNEY_TOTAL: 2.2 g
  LIVER: 14.5 g
  ALP: 924.4 IU/L
  AST: 63.8 IU/L
  BUN: 17.2 mg/dL
  CRE: 0.4 mg/dL
  Ca: 10.8 mg/dL
  Cl: 101.2 meq/L
  DBIL: 0.086 mg/dL
  GLC: 208.6 mg/dL
  IP: 8.8 mg/dL
  K: 3.8 meq/L
  LDH: 248.4 IU/L
  Na: 140.8 meq/L
  PL: 173.8 mg/dL
  RALB: 3.4 g/dL
  TBIL: 0.1 mg/dL
  TC: 89 mg/dL
  TG: 124.8 mg/dL
  TP: 5.8 g/dL
  gamma-GTP: 1 IU/L
[3]
  TERMINAL_BW: 314.9 g
  APTT: 20.3 s
  Bas: 0%
  Eos: 0.8%
  Fbg: 211.4 mg/dL
  Hb: 13.6 g/dL
  Ht: 39.2%
  Lym: 83.8%
  MCH: 20 pg
  MCHC: 34.6%
  MCV: 57.6 fL
  Mono: 2.8%
  Neu: 11.4%
  PT: 12.2 s
  Plat: 128.3 x10_4/uL
  RBC: 681.4 x10_4/ul
  Ret: 4.2%
  WBC: 96 x10_2/uL
  KIDNEY_L: 1.3 g
  KIDNEY_R: 1.3 g
  KIDNEY_TOTAL: 2.5 g
  LIVER: 15.7 g
  ALP: 808.4 IU/L
  AST: 62 IU/L
  BUN: 17.2 mg/dL
  CRE: 0.5 mg/dL
  Ca: 10.5 mg/dL
  Cl: 101.6 meq/L
  DBIL: 0.066 mg/dL
  GLC: 205.4 mg/dL
  IP: 8.3 mg/dL
  K: 3.9 meq/L
  LDH: 198 IU/L
  Na: 141.4 meq/L
  PL: 162.6 mg/dL
  RALB: 3.6 g/dL
  TBIL: 0.1 mg/dL
  TC: 84.4 mg/dL
  TG: 78.4 mg/dL
  TP: 6 g/dL
  gamma-GTP: 0.8 IU/L
[4]
  TERMINAL_BW: 384.1 g
  APTT: 21.8 s
  Bas: 0%
  Eos: 0.8%
  Fbg: 203 mg/dL
  Hb: 14.5 g/dL
  Ht: 42.2%
  Lym: 80.4%
  MCH: 18.7 pg
  MCHC: 34.3%
  MCV: 54.6 fL
  Mono: 2.4%
  Neu: 15.6%
  PT: 12.4 s
  Plat: 119.7 x10_4/uL
  RBC: 773.8 x10_4/ul
  Ret: 2.7%
  WBC: 105.1 x10_2/uL
  KIDNEY_L: 1.4 g
  KIDNEY_R: 1.4 g
  KIDNEY_TOTAL: 2.9 g
  LIVER: 18.2 g
  ALP: 521.6 IU/L
  AST: 56.2 IU/L
  BUN: 15.6 mg/dL
  CRE: 0.5 mg/dL
  Ca: 10.3 mg/dL
  Cl: 101.6 meq/L
  DBIL: 0.062 mg/dL
  GLC: 221.8 mg/dL
  IP: 7.3 mg/dL
  K: 3.7 meq/L
  LDH: 135 IU/L
  Na: 141.6 meq/L
  PL: 134.8 mg/dL
  RALB: 3.5 g/dL
  TBIL: 0.1 mg/dL
  TC: 70 mg/dL
  TG: 66 mg/dL
  TP: 6.1 g/dL
  gamma-GTP: 1 IU/L
[5]
  TERMINAL_BW: 219.1 g
  APTT: 19.8 s
  Bas: 0%
  Eos: 0.6%
  Fbg: 196 mg/dL
  Hb: 13.8 g/dL
  Ht: 39.6%
  Lym: 83.2%
  MCH: 20.8 pg
  MCHC: 34.8%
  MCV: 59.9 fL
  Mono: 3.8%
  Neu: 11.8%
  PT: 12.1 s
  Plat: 132.7 x10_4/uL
  RBC: 662.2 x10_4/ul
  Ret: 1.7%
  WBC: 99.5 x10_2/uL
  KIDNEY_L: 1 g
  KIDNEY_R: 1 g
  KIDNEY_TOTAL: 1.9 g
  LIVER: 15.4 g
  ALP: 629 IU/L
  AST: 46 IU/L
  BUN: 17.6 mg/dL
  CRE: 0.4 mg/dL
  Ca: 10 mg/dL
  Cl: 101.8 meq/L
  DBIL: 0.094 mg/dL
  GLC: 195 mg/dL
  IP: 7.5 mg/dL
  K: 3.8 meq/L
  LDH: 200 IU/L
  Na: 140.2 meq/L
  PL: 207.4 mg/dL
  RALB: 3.3 g/dL
  TBIL: 0.2 mg/dL
  TC: 120.8 mg/dL
  TG: 157.2 mg/dL
  TP: 5.6 g/dL
  gamma-GTP: 2 IU/L
[6]
  TERMINAL_BW: 262 g
  APTT: 21.9 s
  Bas: 0%
  Eos: 0.6%
  Fbg: 215.2 mg/dL
  Hb: 12 g/dL
  Ht: 34.9%
  Lym: 80.4%
  MCH: 20.3 pg
  MCHC: 34.4%
  MCV: 59 fL
  Mono: 3.8%
  Neu: 14.6%
  PT: 11.9 s
  Plat: 171.4 x10_4/uL
  RBC: 591.8 x10_4/ul
  Ret: 4.3%
  WBC: 118.3 x10_2/uL
  KIDNEY_L: 1.1 g
  KIDNEY_R: 1.1 g
  KIDNEY_TOTAL: 2.1 g
  LIVER: 18.1 g
  ALP: 661.8 IU/L
  AST: 59.2 IU/L
  BUN: 16.6 mg/dL
  CRE: 0.4 mg/dL
  Ca: 10.7 mg/dL
  Cl: 101.4 meq/L
  DBIL: 0.064 mg/dL
  GLC: 187.4 mg/dL
  IP: 8.2 mg/dL
  K: 3.9 meq/L
  LDH: 242.4 IU/L
  Na: 140.6 meq/L
  PL: 200.8 mg/dL
  RALB: 3.5 g/dL
  TBIL: 0.1 mg/dL
  TC: 117.6 mg/dL
  TG: 62.4 mg/dL
  TP: 6.2 g/dL
  gamma-GTP: 2.6 IU/L
[7]
  TERMINAL_BW: 300.1 g
  APTT: 24.5 s
  Bas: 0%
  Eos: 0.6%
  Fbg: 203.8 mg/dL
  Hb: 11.7 g/dL
  Ht: 34.1%
  Lym: 82.2%
  MCH: 18.6 pg
  MCHC: 34.2%
  MCV: 54.3 fL
  Mono: 2.6%
  Neu: 13%
  PT: 12.7 s
  Plat: 139.7 x10_4/uL
  RBC: 628.4 x10_4/ul
  Ret: 5%
  WBC: 131 x10_2/uL
  KIDNEY_L: 1.2 g
  KIDNEY_R: 1.2 g
  KIDNEY_TOTAL: 2.3 g
  LIVER: 21.2 g
  ALP: 599 IU/L
  AST: 52.6 IU/L
  BUN: 18.2 mg/dL
  CRE: 0.5 mg/dL
  Ca: 10.8 mg/dL
  Cl: 102.8 meq/L
  DBIL: 0.072 mg/dL
  GLC: 191.4 mg/dL
  IP: 7.8 mg/dL
  K: 3.9 meq/L
  LDH: 195.8 IU/L
  Na: 141.2 meq/L
  PL: 206.6 mg/dL
  RALB: 3.6 g/dL
  TBIL: 0.1 mg/dL
  TC: 120.8 mg/dL
  TG: 77.8 mg/dL
  TP: 6.3 g/dL
  gamma-GTP: 2.2 IU/L
[8]
  TERMINAL_BW: 351.8 g
  APTT: 23.8 s
  Bas: 0%
  Eos: 0.6%
  Fbg: 196.8 mg/dL
  Hb: 12 g/dL
  Ht: 35.7%
  Lym: 78.6%
  MCH: 17.3 pg
  MCHC: 33.7%
  MCV: 51.3 fL
  Mono: 2.2%
  Neu: 17.6%
  PT: 12.3 s
  Plat: 124 x10_4/uL
  RBC: 697.2 x10_4/ul
  Ret: 4%
  WBC: 152.6 x10_2/uL
  KIDNEY_L: 1.2 g
  KIDNEY_R: 1.2 g
  KIDNEY_TOTAL: 2.5 g
  LIVER: 21.4 g
  ALP: 458.4 IU/L
  AST: 50.6 IU/L
  BUN: 18.2 mg/dL
  CRE: 0.5 mg/dL
  Ca: 10.7 mg/dL
  Cl: 102.2 meq/L
  DBIL: 0.07 mg/dL
  GLC: 190.8 mg/dL
  IP: 6.9 mg/dL
  K: 3.9 meq/L
  LDH: 119.2 IU/L
  Na: 142.6 meq/L
  PL: 185.8 mg/dL
  RALB: 3.8 g/dL
  TBIL: 0.1 mg/dL
  TC: 102.4 mg/dL
  TG: 49 mg/dL
  TP: 6.6 g/dL
  gamma-GTP: 2.4 IU/L
